In this assay the target is enzyme 5α-reductase. The assay can be described thus: enzymatic in vitro method described in WO/9413691 (5α-reductase inhibition). The class given is biochemical. The following applies: for IC50: concentration inhibiting by 50% the enzymatic activity, Finasteride as control product; for inhibiting activity on the enzyme 5α-reductase: verbal assessment, compared with Finasteride. From the text:
The three monohydroxylated products obtained by biotransformation of the azasteroid moiety using Penicillium sp. have biological activity on the enzyme 5α-reductase. For this purpose, the enzymatic in vitro method described in WO/9413691, published on June 23, 1994 has been used.

Turning to `CC(C)(C)NC(=O)[C@H]1CC[C@H]2[C@@H]3C[C@H](O)C4NC(=O)CC[C@]4(C)[C@H]3CC[C@]12C` (stereo partly drawn) [Product 1, 17β-t-butylcarbamoyl-6a-hydroxy-4-azaandrostan-3-one], the half-inhibitory concentration (IC50) worked out at 195 nM and the “inhibiting activity on the enzyme 5α-reductase” value is listed as “poorly active”.

As to `CC(C)(C)NC(=O)[C@H]1C[C@H](O)[C@H]2[C@@H]3CCC4NC(=O)CC[C@]4(C)[C@H]3CC[C@@]21C` (stereo partly drawn) [Product 2, 17β-t-butylcarbamoyl-15a-hydroxy-4-azaandrostan-3-one], the concentration for half-maximal inhibition (IC50) amounted to 35 nM and the “inhibiting activity on the enzyme 5α-reductase” value was “strong inhibiting activity”.

As for `CC(C)(C)NC(=O)[C@H]1CC[C@H]2[C@@H]3CC[C@H]4NC(=O)C=C[C@]4(C)[C@H]3CC[C@]12C` [Finasteride, reference compound], half-maximal inhibition (IC50) required 37 nM.

Consider `CC(C)(C)NC(=O)[C@H]1C[C@@H](O)[C@H]2[C@@H]3CCC4NC(=O)CC[C@]4(C)[C@H]3CC[C@@]21C` (stereo partly drawn) [Product 3, 17β-t-butylcarbamoyl-15β-hydroxy-4-azaandrostan-3-one], for which half-maximal inhibition (IC50) required 35 nM and the “inhibiting activity on the enzyme 5α-reductase” value is reported as “strong inhibiting activity”.

As a reminder, the IC50 is the midpoint of a concentration-inhibition curve. Low values mean greater potency, high ones weaker potency.

Source of the values: patent EP0922770B1, “A microbiological process for the transformation of 17beta-carboxy substituted 3-oxo-4-azasteroids and the use of such products as inhibitors of the enzyme 5alpha-reductase” (POLI INDUSTRIA CHIMICA S.p.A., priority 1994, dated 1996).
